The experiment has as its system murine squamous carcinoma cell line (SCCVII). The experiment can be described thus: SCCVII floor-of-mouth tumor growth, oral rhLF and/or cisplatin (Example 6). It is filed as in vivo, immunocompetent C3H mice. As to the method: A murine squamous carcinoma cell line (SCCVII) was injected into the floor of the mouth through the neck skin of immunocompetent C3H mice (Day 0). […] Tumors were measured in three dimensions with calipers.
Tumor-bearing mice were randomized into a control group and seven groups receiving rhLF and/or cisplatin. RhLF (4 mg; 200 mg/Kg) was administered once daily by oral gavage for 8 days on days 5 through 12. Cisplatin was administered as a single dose of 5 mg/Kg given intraperitoneally either at the start of rhLF (day 5), in the middle (day 8) or at the end (day 12) of rhLF therapy. Animals were sacrificed on day 12 post-implantation and the residual tumor masses were measured and processed for later additional analyses.

In the case of `N.N.[Cl][Pt][Cl]` [CP, Cisplatin], the “TGI (%) Relative to Placebo” value (cisplatin 5 mg/kg i.p. on day 5, with rhLF 200 mg/kg oral days 5-12 where combined) worked out at 68%; the “TGI (%) Relative to Placebo” value (cisplatin 5 mg/kg i.p. on day 8, with rhLF 200 mg/kg oral days 5-12 where combined) turned out to be 6%; the “TGI (%) Relative to Placebo” value (cisplatin 5 mg/kg i.p. on day 12, with rhLF 200 mg/kg oral days 5-12 where combined) is on record as 42%; the “TGI (%) Relative to Placebo” value (pooled cisplatin day 5, 8 and 12 groups) turned out to be 38%.

Source of the values: US7901879B2, “Lactoferrin in the treatment of malignant neoplasms and other hyperproliferative diseases” (Agennix Incorporated, priority 2002, dated 2011).
